Laboratory results: patent publication US9365574B2, “Soluble guanylate cyclase activators” (Merck Sharp & Dohme Corp., priority 2010, dated 2016)

Each molecule was assayed on Spontaneously hypertensive rats (SHR) (assay: Acute Efficacy in Spontaneously Hypertensive Rats (SHR), telemetry blood pressure). Conditions: dose 0.3 mpk.
Format: in vivo, rat
Excerpt: Acute Efficacy in Spontaneously Hypertensive Rats (SHR)
Spontaneously hypertensive rats (SHR, male, Charles River) were implanted with DSI TA11PA-C40 telemetry device (Data Sciences, Inc., St. Paul, Minn.) under isoflurane or ketamine/metomidine anesthesia. The telemetry unit catheter was inserted into the descending aorta via the femoral artery and the telemetry device was implanted subcutaneously in the left flank area. Animals were allowed to recover from surgery for 14 days before the start of any studies. Blood pressure, heart rate, and activity signals from conscious, freely moving rats were recorded continuously for 30 seconds every 10 minutes. On the day prior to administration of compound, a single oral dose of vehicle (10% transcutol/20% Cremophor/70% water) was administered to all animals to establish baseline control data. The blood pressure lowering efficacy of compound (PO) or vehicle was evaluated following a single oral gavage. Data were collected as hourly averages, and changes in blood pressure were calculated by subtracting control baseline data on an hourly basis. Animals were maintained on normal diet with a 12 hour light-dark cycle.
Maximum peak decreases of systolic blood pressure (SBP) in SHR at a particular P.O. dose (mpk milligrams per kilogram) for the following representative compounds are provided.

SMILES | Maximum SBP reduction
CC1(C(N)=O)C(=O)Nc2nc(-c3nn(CCC(F)(F)C(F)(F)F)c4cc(Cl)ccc34)nc(N)c21 (single isomer, unassigned) [Example 159, 4-Amino-2-[6-Chloro-1-(3,3,4,4,4-Pentafluorobutyl)-1H-Indazol-3-yl]-5-Methyl-6-Oxo-6,7-Dihydro-5H-Pyrrolo[2,3-D]Pyrimidine-5-Carboxamide] | 38 ± 6 mmHg
CC1(c2cn(CC3CC3)nn2)C(=O)Nc2nc(-c3nn(CCC(F)(F)F)c4ncccc34)nc(N)c21 (centres unmarked) [Example 180, 4-Amino-5-[1-(Cyclopropylmethyl)-1H-1,2,3-Triazol-4-yl]-5-Methyl-2-[1-(3,3,3-Trifluoropropyl)-1H-Pyrazolo[3,4-B]Pyridin-3-yl]-5,7-Dihydro-6H-Pyrrolo[2,3-D]Pyrimidin-6-One] | 18 ± 5 mmHg

Same assay, conditions: single oral dose 0.1 mpk P.O.

SMILES | Maximum peak decrease of systolic blood pressure (SBP) in SHR, Category
CC1(c2nnc(C(F)F)o2)C(=O)Nc2nc(-c3nn(CCC(F)(F)C(F)(F)F)c4ncccc34)nc(N)c21 (centres unmarked) [Example 212, 4-amino-5-[5-(difluoromethyl)-1,3,4-oxadiazol-2-yl]-5-methyl-2-[1-(3,3,4,4.4-pentafluorobutyl)-1H-pyrazolo[3,4-b]pyridin-3-yl]-5,7-dihydro-6H-pyrrolo(2,3-d]pyrimidin-6-one] | B (Category B=SBP in SHRs 25-40 mmHg)

Same assay, conditions: single oral dose 0.3 mpk P.O.

SMILES | Maximum peak decrease of systolic blood pressure (SBP) in SHR, Category
CC1(c2nc(C(F)(F)F)no2)C(=O)Nc2nc(-c3nc(CCCC(F)(F)F)n4cc(F)ccc34)nc(N)c21 (centres unmarked) [Example 248, 4-amino-2-[6-fluoro-3-(4,4,4-trifluorobutyl)imidazo[1,5-a]pyridin-1-yl]-5-methyl-5-[3-(trifluoromethyl)-1,2,4-oxadiazol-5-yl]-5,7-dihydro-6H-pyrrolo[2,3-d]pyrimidin-6-one] | B (Category B=SBP in SHRs 25-40 mmHg)
CC1(C(N)=O)C(=O)Nc2nc(-c3nn(CCC(F)(F)C(F)(F)F)c4cc(F)ccc34)nc(N)c21 (centres unmarked) [Example 192, 4-amino-2-[6-fluoro-1-(3,3,4,4,4-pentafluorobutyl)-1H-indazol-3-yl]-5-methyl-6-oxo-6,7-dihydro-5H-pyrrolo[2,3-d]pyrimidine-5-carboxamide] | B (Category B=SBP in SHRs 25-40 mmHg)
CC1(C(N)=O)C(=O)Nc2nc(-c3nn(CCC(F)(F)C(F)(F)F)c4cc(Cl)ccc34)nc(N)c21 (single isomer, unassigned) [Example 159, 4-Amino-2-[6-Chloro-1-(3,3,4,4,4-Pentafluorobutyl)-1H-Indazol-3-yl]-5-Methyl-6-Oxo-6,7-Dihydro-5H-Pyrrolo[2,3-D]Pyrimidine-5-Carboxamide] | B (Category B=SBP in SHRs 25-40 mmHg)
CC1(c2nnc(C(F)(F)F)o2)C(=O)Nc2nc(-c3nn(CCC(F)(F)C(F)(F)F)c4ccncc34)nc(N)c21 (centres unmarked) [Example 203, 4-amino-5-methyl-2-[1-(3,3,4,4,4-pentafluorobutyl)-1H-pyrazolo[3,4-d]pyridin-3-yl]-5-[5-(trifluoromethyl)-1,3,4-oxadiazol-2-yl)-5,7-dihydro-6H-pyrrolo[2,3-d]pyrimidin-6-one] | C (Category C=SBP in SHRs>40 mmHg)
CC1(NCC2CC2)C(=O)Nc2nc(-c3nn(CCC(F)(F)C(F)(F)F)c4cc(Cl)ccc34)nc(N)c21 (centres unmarked) [Example 202, 4-amino-2-[6-chloro-1-(3,3,4,4,4-pentafluorobutyl)-1H-indazol-3-yl)-5-[(cyclopropylmethyl)amino]-5-methyl-5,7-dihydro-6H-pyrrolo[2,3-d]pyrimidin-6-one] | C (Category C=SBP in SHRs>40 mmHg)
CC1(C(=O)NC2CC2)C(=O)Nc2nc(-c3nn(CCC(F)(F)C(F)(F)F)c4cc(F)ccc34)nc(N)c21 (centres unmarked) [Example 195, 4-amino-N-cyclopropyl-2-[6-fluoro-1-(3,3,4,4,4-pentafluorobutyl)-1H-indazol-3-yl]-5-methyl-6-oxo-6,7-dihydro-5H-pyrrolo[2,3-d]pyrimidine-5-carboxamide] | C (Category C=SBP in SHRs>40 mmHg)
CC(C)n1nc(C2(C)C(=O)Nc3nc(-c4nn(CCC(F)(F)C(F)(F)F)c5ccncc45)nc(N)c32)oc1=O (centres unmarked) [Example 199, 4-amino-5-methyl-5-[4-(1-methylethyl)-5-oxo-4,5-dihydro-1,3,4-oxadiazol-2-yl]-2-[1-(3,3,4,4,4-pentafluorobutyl)-1H-pyrazolo[3,4-d]pyridin-3-yl]-5,7-dihydro-6H-pyrrolo[2,3-d]pyrimidin-6-one] | B (Category B=SBP in SHRs 25-40 mmHg)
CC(C)n1nc(C2(C)C(=O)Nc3nc(-c4nn(CCC(F)(F)C(F)(F)F)c5cc(Cl)ccc45)nc(N)c32)oc1=S (centres unmarked) [Example 172, 4-Amino-2-[6-Chloro-1-(3,3,4,4,4-Pentafluorobutyl)-1H-Indazol-3-yl]-5-Methyl-5-[4-(Propan-2-yl)-5-Thioxo-4,5-Dihydro-1,3,4-Oxadiazol-2-yl]-5,7-Dihydro-6H-Pyrrolo[2,3-D]Pyrimidin-6-One] | A (Category A=SBP in SHRs<25 mmHg)
CC1(C(=O)NC2CC2)C(=O)Nc2nc(-c3nn(CCC(F)(F)C(F)(F)F)c4ccccc34)nc(N)c21 (centres unmarked) [Example 194, 4-amino-N-cyclopropyl-5-methyl-6-oxo-2-[1-(3,3,4,4,4-pentafluorobutyl)-1H-indazol-3-yl]-6,7-dihydro-5H-pyrrolo[2,3-d]pyrimidine-5-carboxamide] | C (Category C=SBP in SHRs>40 mmHg)
Cc1nnc(C2(C)C(=O)Nc3nc(-c4nn(CCC(F)(F)F)c5cc(Cl)ccc45)nc(N)c32)o1 (centres unmarked) [Example 198, 4-amino-2-[6-chloro-1-(3,3,3-trifluoropropyl)-1H-indazol-3-yl]-5-methyl-5-(5-methyl-1,3,4-oxadiazol-2-yl)-5,7-dihydro-6H-pyrrolo[2,3-d]pyrimidin-6-one] | B (Category B=SBP in SHRs 25-40 mmHg)
N#CC1(C2CC2)C(=O)Nc2nc(-c3nn(CCC(F)(F)C(F)(F)F)c4ncccc34)nc(N)c21 (centres unmarked) [Example 163, 4-Amino-5-Cyclopropyl-6-Oxo-2-[1-(3,3,4,4,4-Pentafluorobutyl)-1H-Pyrazolo[3,4-B]Pyridin-3-yl]-6,7-Dihydro-5H-Pyrrolo[2,3-D]Pyrimidine-5-Carbonitrile] | C (Category C=SBP in SHRs>40 mmHg)
CC1(c2cn(CC3CC3)nn2)C(=O)Nc2nc(-c3nn(CCC(F)(F)F)c4ncccc34)nc(N)c21 (centres unmarked) [Example 180, 4-Amino-5-[1-(Cyclopropylmethyl)-1H-1,2,3-Triazol-4-yl]-5-Methyl-2-[1-(3,3,3-Trifluoropropyl)-1H-Pyrazolo[3,4-B]Pyridin-3-yl]-5,7-Dihydro-6H-Pyrrolo[2,3-D]Pyrimidin-6-One] | A (Category A=SBP in SHRs<25 mmHg)
CC1(C(=O)NC2CC2)C(=O)Nc2nc(-n3nc(CCC(F)(F)C(F)(F)F)c4ncccc43)nc(N)c21 (centres unmarked) [Example 266, 4-amino-N-cyclopropyl-5-methyl-6-oxo-2-[3-(3,3,4,4,4-pentafluorobutyl)-1H-pyrazolo[4,3-b]pyridin-1-yl]-6,7-dihydro-5H-pyrrolo[2,3-d]pyrimidine-5-carboxamide] | C (Category C=SBP in SHRs>40 mmHg)
CNC(=O)C1(C)C(=O)Nc2nc(-c3nn(CCC(F)(F)C(F)(F)F)c4cc(Cl)ccc34)nc(NC)c21 (centres unmarked) [Example 258, 2-[6-chloro-1-(3,3,4,4,4-pentafluorobutyl)-1H-indazol-3-yl]-N,5-dimethyl-4-(methylamino)-6-oxo-6,7-dihydro-5H-pyrrolo[2,3-d]pyrimidine-5-carboxamide] | A (Category A=SBP in SHRs<25 mmHg)
CNC(=O)C1(C)C(=O)Nc2nc(-c3nn(CCC(F)(F)C(F)(F)F)c4ncccc34)nc(NC)c21 (centres unmarked) [Example 259, N,5-dimethyl-4-(methylamino)-6-oxo-2-[1-(3,3,4,4,4-pentafluorobutyl)-1H-pyrazolo[3,4-b]pyridin-3-yl]-6,7-dihydro-5H-pyrrolo[2,3-d]pyrimidine-5-carboxamide] | A (Category A=SBP in SHRs<25 mmHg)
Cc1nnc(C2(C)C(=O)Nc3nc(-c4nn(CCC(F)(F)C(F)(F)F)c5ncc(Cl)cc45)nc(N)c32)o1 (centres unmarked) [Example 269, 4-amino-2-[5-chloro-1-(3,3,4,4,4-pentafluorobutyl)-1H-pyrazolo[3,4-b]pyridin-3-yl]-5-methyl-5-(5-methyl-1,3,4-oxadiazol-2-yl)-5,7-dihydro-6H-pyrrolo[2,3-d]pyrimidin-6-one] | C (Category C=SBP in SHRs>40 mmHg)
CC1(C(=O)Nc2cccnc2)C(=O)Nc2nc(-c3nc(CCC(F)(F)C(F)(F)F)n4cc(F)ccc34)nc(N)c21 (centres unmarked) [Example 253, 4-amino-2-[6-fluoro-3-(3,3,4,4,4-pentafluorobutyl)imidazo[1,5-a]pyridin-1-yl]-5-methyl-6-oxo-H-pyridin-3-yl-6,7-dihydro-5H-pyrrolo[2,3-d]pyrimidine-5-carboxamide] | A (Category A=SBP in SHRs<25 mmHg)

Same assay, conditions: single oral dose 1 mpk P.O.

SMILES | Maximum peak decrease of systolic blood pressure (SBP) in SHR, Category
CC1(C(=O)NC2CC2)C(=O)Nc2nc(-c3nn(CCC(F)(F)F)c4nc(C#N)ccc34)nc(N)c21 (centres unmarked) [Example 221, 4-amino-2-[6-cyano-1-(3,3,3-trifluoropropyl)-1H-pyrazolo[3,4-b]pyridin-3-yl]-N-cyclopropyl-5-methyl-6-oxo-6,7-dihydro-5H-pyrrolo[2,3-d]pyrimidine-5-carboxamide] | C (Category C=SBP in SHRs>40 mmHg)
CC1(C(N)=S)C(=O)Nc2nc(-c3nn(CCC(F)(F)C(F)(F)F)c4ncccc34)nc(N)c21 (centres unmarked) [Example 205, 4-amino-5-methyl-6-oxo-2-[1-(3,3,4,4,4-pentafluorobutyl)-1H-pyrazolo[3,4-6]pyridin-3-yl]-6,7-dihydro-5H-pyrrolo[2,3-d]pyrimidine-5-carbothioamide] | C (Category C=SBP in SHRs>40 mmHg)
COc1ccc2c(-c3nc(N)c4c(n3)NC(=O)C4(C)C(N)=O)nn(CCC(F)(F)C(F)(F)F)c2n1 (centres unmarked) [Example 220, 4-amino-2-[6-methoxy-1-(3,3,4,4,4-pentafluorobutyl)-1H-pyrazolo[3,4-b]pyridin-3-yl]-5-methyl-6-oxo-6,7-dihydro-5H-pyrrolo[2,3-d]pyrimidine-5-carboxamide] | B (Category B=SBP in SHRs 25-40 mmHg)
